These results are taken from article PMC2865235 (Journal of pharmaceutical and biomedical analysis, 2010).

One data set concerns ABCG2. The settings on record: cited from earlier work.
Another data set deals with ABCB1. To be noted: cited from earlier work.
The test system of a further data set is P388 cells. To be noted: read-out: 72 h IC50, ref [2]; cited from earlier work.
The test system of a further data set is cell cycle. The settings on record: in vitro; ref [2]; cited from earlier work.
For data set [1] the following is noted: human, 4 h.
The next data set relates to HCT-116 cells. The settings on record: read-out: 72 h IC50, ref [2]; cited from earlier work.
For data set [2], the system named is Topo I cleavage complexes. The settings on record: drug 1 μM, compared with CPT or SN-38; ref [2]; cited from earlier work.
The test system of the next data set is MCF-7 cells. To be noted: read-out: 72 h IC50, ref [2]; cited from earlier work.

A word on the IC50: it is the concentration needed to halve the response being measured.

Where two headings read alike, the source gives them in different places. Bounds are passed on as bounds.

For `CC[C@@]1(O)C(=O)OCc2c1cc1n(c2=O)Cc2cc3ccccc3nc2-1` [Camptothecin, camptothecin], the “Substrate for the efflux pump ABCG2” value in the data set on ABCG2 (ref [2]) is given as “good substrates”.

As to `COc1cc2c3c(n(CCCN4CCOCC4)c(=O)c2cc1OC)-c1cc2c(cc1C3=O)OCO2` [NSC 724998], in the data set with ABCB1, the “Substrate for ABCB1” value was “not a substrate”. In addition, the “Substrate for the efflux pump ABCG2” value in the data set on ABCG2 (not told) is recorded as “not a substrate”.

For `COc1cc2c3c(n(CCCn4ccnc4)c(=O)c2cc1OC)-c1cc2c(cc1C3=O)OCO2` [NSC 725776], the “Protein binding in human plasma” value is recorded as more than 98%. Moreover, the half-maximal inhibitory concentration (IC50) in the data set with P388 cells is less than 30 nM. Besides, the “Substrate for ABCB1” value in the data set with ABCB1 is listed as “moderate substrate”. In the data set on cell cycle, the Cell cycle arrest entry is “cell cycle arrest in both S and G(2)-M”. In addition, the “Stability in plasma at room temperature” value in [1] is more than 94.3%. Besides, in the data set with HCT-116 cells, the IC50 is 130 nM. In data set [2], the “Persistence of Topo I cleavage complexes after removal of drug” value was “persisted longer”. Besides, the concentration for half-maximal inhibition (IC50) in the data set on MCF-7 cells is 90 nM. Also, the “Substrate for the efflux pump ABCG2” value with ABCG2 (not told) is given as “moderate substrate”.

Regarding `COc1cc2c3c(n(CCCN4CCOCC4)c(=O)c2cc1OC)-c1cc2c(cc1C3=O)OCO2.Cl` [NSC 743400], the “Protein binding in human plasma” value was more than 98%. Also, the IC50 in the data set with P388 cells is 300 nM. Moreover, the Cell cycle arrest result in the data set on cell cycle is “cell cycle arrest in both S and G(2)-M”. The “Stability in plasma at room temperature” value in data set [1] is on record as more than 94.3%. Also, in the data set with HCT-116 cells, the IC50 was 1200 nM. The “Persistence of Topo I cleavage complexes after removal of drug” value in data set [2] is reported as “persisted longer”. Moreover, the IC50 with MCF-7 cells was 560 nM.

Regarding `CCc1c2c(nc3ccc(O)cc13)-c1cc3c(c(=O)n1C2)COC(=O)[C@]3(O)CC` [SN-38], in the data set on ABCG2 (ref [2]), the “Substrate for the efflux pump ABCG2” value is listed as “good substrates”.

Regarding `CC[C@@]1(O)C(=O)OCc2c1cc1n(c2=O)Cc2cc3c(CN(C)C)c(O)ccc3nc2-1` [topotecan], in the data set on ABCG2 (ref [2]), the “Substrate for the efflux pump ABCG2” value is given as “good substrates”.
